From ChEMBL document CHEMBL1806478, “Synthesis of novel inhibitors of β-glucuronidase based on benzothiazole skeleton and study of their binding affinity by molecular docking” (Bioorg Med Chem, 2011)
Active and inactive are the calls of the source. The calls are words filed in the database; no cut-off is given here.

Assays:
[1] = biological target: T1, Beta-glucuronidase (Bos taurus) (UniProt A3KMY8); assay: Inhibition of bovine liver beta glucuronidase assessed as p-nitrophenol formation at 0.2 mM after 30 mins by spectrophotometric method
T1 sequence (whole entry): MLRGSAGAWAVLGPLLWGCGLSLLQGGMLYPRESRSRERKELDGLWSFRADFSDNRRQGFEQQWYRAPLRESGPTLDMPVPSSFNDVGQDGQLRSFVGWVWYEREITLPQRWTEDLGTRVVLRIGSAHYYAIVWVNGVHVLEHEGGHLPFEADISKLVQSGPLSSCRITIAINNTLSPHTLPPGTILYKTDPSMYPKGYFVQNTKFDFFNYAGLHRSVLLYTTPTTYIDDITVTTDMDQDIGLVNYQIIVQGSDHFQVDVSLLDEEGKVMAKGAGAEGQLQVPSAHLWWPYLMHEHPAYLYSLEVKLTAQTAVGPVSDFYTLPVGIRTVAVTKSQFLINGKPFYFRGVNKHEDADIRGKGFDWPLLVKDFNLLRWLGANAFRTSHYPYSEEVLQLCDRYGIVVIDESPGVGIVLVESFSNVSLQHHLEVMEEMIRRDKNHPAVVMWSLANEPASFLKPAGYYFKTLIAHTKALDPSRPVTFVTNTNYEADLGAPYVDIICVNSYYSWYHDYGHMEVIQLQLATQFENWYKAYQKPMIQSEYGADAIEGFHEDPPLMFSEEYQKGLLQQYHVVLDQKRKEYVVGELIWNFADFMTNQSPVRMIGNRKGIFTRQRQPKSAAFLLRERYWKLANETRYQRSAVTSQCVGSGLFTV

[2] = Inhibition of alpha-chymotrypsin
[3] = Inhibition of urease
[4] = biological target: T1, Beta-glucuronidase (Bos taurus); assay: (§1) Inhibition of bovine liver beta glucuronidase assessed as p-nitrophenol formation after 30 mins by spectrophotometric method
Beta-glucuronidase = biological target: T2, Beta-glucuronidase (Bos taurus, UniProt A3KMY8); assay: as §1
T2 sequence (A3KMY8 whole entry): T1 sequence (whole entry)

3T3-L1 = assay: Cytotoxic activity against mouse 3T3L1 cells assessed as cell viability at 1 to 20 ug/ml after 48 hrs by MTT assay; assay type: cell-based; settings: 3t3-l1, 48 h
CC-1 = assay: Cytotoxic activity against Wistar rat CC1 cells assessed as cell viability at 1 to 20 ug/ml after 48 hrs by MTT assay; assay type: cell-based; settings: cc-1, 48 h
[5] = biological target: T1, Beta-glucuronidase (Bos taurus); assay: Ratio of D-saccharic acid 1,4-lactone IC50 to compound IC50 for bovine liver beta glucuronidase

Row | SMILES | inhibition [1] | inhibition [2] | inhibition [3] | inhibition [4] | IC50 (Beta-glucuronidase) | Activity (3T3-L1) | Activity (CC-1) | Ratio IC50 [5]
1 | c1ccc2cc(-c3nc4ccccc4s3)ccc2c1 | < 50% | inactive | inactive | – | – | – | – | –
2 | CCOc1ccc(-c2nc3ccccc3s2)cc1 | – | inactive | inactive | inactive | – | – | – | –
3 | CCOc1cccc(-c2nc3ccccc3s2)c1O | – | inactive | inactive | inactive | – | – | – | –
4 | Oc1ccc(-c2nc3ccccc3s2)c(O)c1 | – | inactive | inactive | – | 19.4 µM | Non-toxic | Non-toxic | –
5 | Clc1ccc(-c2nc3ccccc3s2)cc1 | < 50% | inactive | inactive | – | – | – | – | –
6 | Brc1ccc(-c2nc3ccccc3s2)cc1 | – | inactive | inactive | inactive | – | – | – | –
7 | Oc1ccc(-c2nc3ccccc3s2)cc1 | – | inactive | inactive | – | 8.9 µM | Non-toxic | Non-toxic | –
8 | Oc1ccc(-c2nc3ccccc3s2)cc1O | – | inactive | inactive | – | 94 µM | Non-toxic | Non-toxic | –
9 | Clc1ccc(-c2nc3ccccc3s2)c(Cl)c1 | – | inactive | inactive | inactive | – | – | – | –
10 | Oc1cc(O)c(-c2nc3ccccc3s2)cc1O | – | inactive | inactive | – | 2.26 µM | Non-toxic | Non-toxic | 24
11 | CN(C)c1ccc(-c2nc3ccccc3s2)cc1 | – | inactive | inactive | inactive | – | – | – | –
12 | c1csc(-c2nc3ccccc3s2)c1 | < 50% | inactive | inactive | – | – | – | – | –
13 | c1cncc(-c2nc3ccccc3s2)c1 | – | inactive | inactive | inactive | – | – | – | –
14 | Oc1cccc(-c2nc3ccccc3s2)c1 | – | inactive | inactive | – | 36.1 µM | Non-toxic | Non-toxic | –
15 | Cc1ccccc1-c1nc2ccccc2s1 | < 50% | inactive | inactive | – | – | – | – | –
16 | Clc1ccc(-c2nc3ccccc3s2)cc1Cl | < 50% | inactive | inactive | – | – | – | – | –
17 | Fc1ccccc1-c1nc2ccccc2s1 | – | inactive | inactive | inactive | – | – | – | –
18 | COc1ccc(-c2nc3ccccc3s2)cc1OC | – | inactive | inactive | inactive | – | – | – | –
19 | Oc1ccc(Cl)cc1-c1nc2ccccc2s1 | < 50% | inactive | inactive | – | – | – | – | –
20 | Cc1ccc(-c2nc3ccccc3s2)cc1 | < 50% | inactive | inactive | – | – | – | – | –
21 | Clc1cccc(-c2nc3ccccc3s2)c1 | < 50% | inactive | inactive | – | – | – | – | –
22 | Oc1cccc(-c2nc3ccccc3s2)c1O | < 50% | inactive | inactive | – | – | – | – | –
23 | Oc1ccccc1-c1nc2ccccc2s1 | – | inactive | inactive | – | 4.23 µM | Non-toxic | Non-toxic | 12
24 | Oc1ccc(O)c(-c2nc3ccccc3s2)c1 | – | inactive | inactive | – | 8.9 µM | Non-toxic | Non-toxic | –
25 | c1ccc2sc(-c3ccncc3)nc2c1 | < 50% | inactive | inactive | – | – | – | – | –
26 | COc1cccc(-c2nc3ccccc3s2)c1O | < 50% | inactive | inactive | – | – | – | – | –
